A melting point compilation (Tetko et al.; mined from patent text by program, amines drawn as free bases though some values may be those of a salt)

| SMILES | melting point [°C] |
| --- | --- |
| CCC(CCCN)Nc1cc(OC)c(OC)c2c(C)ccnc12 (stereo not given) | 136 to 137 |
| O=C(O)COc1ccc(Cn2nnc(-c3cccc(C#CCc4ccc(F)cc4)c3)n2)cc1 | 158 to 160 |
| CON(C)C(=O)c1cc2c(Sc3ccc(C)cc3)cncc2s1 | 103 to 107 |
| CC1=C(S(=O)(=O)c2ccc(C)cc2)C(c2ccc(C)cc2)C(C#N)=C(CC(C)C)N1 (stereo not given) | 135 to 137 |
| N#CC1=C(NN)C(=O)NC1=O | > 350 |
| COc1ccc(C(C)(C)C)cc1NC(=O)Nc1ccc(-c2cnc3c(c2)NC(=O)CO3)c2ccccc12 | > 200 |
| CCn1ncc2c3[nH]c4cc(C)nn4c(=O)c3cnc21 | > 300 |
| c1ccc(C2OC3(CCOCC3)c3ccccc32)cc1 (stereo not given) | 132 to 134 |
| Cc1cccc(C(=O)NCc2cccc3c2CN(C2CCC(=O)NC2=O)C3=O)c1 (stereo not given) | 253 to 255 |
| COCc1c(C(=O)O)ncc2c1c1c(Oc3ccc([N+](=O)[O-])cc3)cccc1n2CC(=O)N(C)CCc1ccccc1 | 231 to 232 |
| COc1ccc(Cl)cc1C(=O)NCc1ccc(CCC(=O)O)cc1 | 152 to 153 |
| CC(=O)Oc1ccc2c(c1)CCC1C2CCC2(C)C(OC(=O)c3ccccc3)CCC12 (stereo not given) | 148 to 150 |
| C#CCOc1c(Cl)cc(Cl)cc1C(=O)O | 163 to 164 |
| O=C(NCCN1CCC(Nc2nc3ccccc3n2Cc2ccc(F)cc2)CC1)c1cc2ccccc2[nH]1 | 232 |
| COc1ccccc1-c1cc(C(C)(C)C)c(O)c(C(C)(C)C)c1 | 98.5 to 100 |
| c1ccc(CNc2ccncc2)cc1 | 108 to 110 |
| CCCCCCc1ccc(C=CC(=O)c2ccc(OCC=C(C)C)cc2OCC(=O)O)cc1 | 106 to 108 |
| COc1ccc(Cn2c3ccccc3c3c(N)c4c(nc32)CC(c2ccccc2)CC4=O)cc1 (stereo not given) | 163 to 165 |
| O=C1C2=NCC3(CCCC3)CN2c2ccc(S(=O)(=O)N3CCCC3CN3CCOCC3)cc21 (stereo not given) | 163 to 164 |
| COc1ccc(Cc2cnc(NCCSCc3csc(CN(C)C)n3)[nH]c2=O)cn1 | 137 to 138 |
| Cc1[nH]c2ccccc2c1C(=O)CCN(C)C | 172 to 175 |
| COc1nc(Cl)ccc1C(=O)O | 210 to 215 |
| CCOC(=O)c1oc2ccc(Cl)cc2c1C | 80 to 82 |
| COC(=O)CCCC1C(=S)Nc2ccccc21 (stereo not given) | 132 to 134 |
| CCC1CCCCN(C(=O)C2Cc3ccccc3N2c2ccc(=O)n(C)n2)C1 (stereo not given) | 90 to 95 |

| SMILES | melting point [°C] |
| --- | --- |
| CCOc1nn(-c2ccc(C(F)(F)F)cn2)cc1CCCOc1cccc(OC)c1CC(=O)O | 150 to 151 |
| C[C@H](NC(=O)OC(C)(C)C)C(=O)ON1C(=O)CCC1=O | 164 |
| COc1ccc(-c2c(C(N)=O)n(C)c(=O)c3ncccc23)cc1 | > 310 |
| O=C(CN1CN(OC(F)(F)F)C=N1)c1ccccc1 | 98 to 101 |
| Cc1nc2ccccn2c(=O)c1CCN1CCC2C(C1)c1ccccc1N2Cc1ccccc1 (stereo not given) | 145 |
| C#CC(CC)(CC)NC(N)=O | 108 |
| O=C(O)c1ccc(-c2nc(NCc3ccc4c(c3)OCO4)c3cc([N+](=O)[O-])sc3n2)cc1 | 172 |
| CCn1c(N)c(C(=O)NC)c(=O)c2ccc(-c3ccc(CC(=O)Nc4ccccn4)nc3)nc21 | 266 |
| CC(C)CC1(C(CCNC(=O)c2ccc(F)c(F)c2)C(=O)NO)CCN(CCc2ccccc2)C1=O (stereo not given) | 132 to 134 |
| C#CCNC(=O)c1ccc2ccccc2c1 | 163 to 165 |
| CN(C)CCNC(=O)c1cccc2cc[nH]c12 | 100 to 102 |
| CCc1n[nH]c(CC)c1CCCCCCOc1ccc(Cl)cc1 | 130 to 132 |
| CC(Cc1c[nH]c2ccccc12)C1CCNCC1 (stereo not given) | 150 |
| NC(=NO)c1ncn2c1[C@@H]1CCN1C(=O)c1c-2ccc(F)c1Cl | 236 to 238 |
| CC(C)n1c(=O)nc(-c2cnc3ccccc3c2)c2cc3c(cc21)OCO3 | 279 to 281 |
| O=C(O)CNC(=O)c1ccc(-c2ccc3nnn(Cc4ccc5ncccc5c4)c3n2)cc1F | 252 to 254 |
| CCOC(=N)C1(O)CCc2ccccc21 (stereo not given) | < 20 |
| CCc1cc(C=C(C#N)C#N)ccc1N=C1SCC2(CCCC2)N1C1CCCC1 | 135 to 136 |
| O=[N+]([O-])c1cc(Cl)cc(C(O)c2cc(Cl)cc([N+](=O)[O-])c2O)c1O | 180 |
| COC(=O)c1nc(-c2cc(OC)c(Cl)cc2F)cc(NC(C)=O)c1Cl | 180 to 182 |
| CC12CCC(C(=O)O)=CC1=CCC1C2CCC2(C)C(C(=O)CCc3ccc(F)cc3)CCC12 (stereo not given) | 220 |
| CCOC(=O)c1nc(C2CC2)nc(N)c1C | 130 to 132 |
| CCCc1c(OCCCCc2ccc3c(Cl)c(OC)c(OC)c(Cl)c3c2)ccc(C(=O)OCc2ccccc2)c1O | 66 to 68 |
| Cc1cc(-c2cc(CO)c(=O)n(Cc3ccc(Cl)cc3)n2)ccc1F | 157 to 158 |
| CN1CCC(C(=NNc2ccccc2)c2ccccc2F)CC1 | 131 to 134 |

| SMILES | melting point [°C] |
| --- | --- |
| CCCCCCCCc1c(N)nc(-n2cccn2)nc1CC | 62 to 63 |
| CCOC(=O)c1[nH]c2ccc(Cl)cc2c1N | 126 to 127 |
| C=CCCCCCCCCCCCCCCCCCCCCO | 62 to 64 |
| FC(F)(F)c1ccc(-c2ccnc(Nc3cnc4ccccc4c3)c2)cc1 | 207 to 208 |
| CC1(C)COC(=O)C1=O | 61 to 64 |
| CCOC(=O)CN1CC(=O)N(C)c2ccc([N+](=O)[O-])cc2C1=O | 129 to 130 |
| Cc1cccc(C#C[C@@]2(O)CCC[C@@H](NC(=O)c3ccco3)C2)c1 | 139 to 142 |
| O=C(O)Cn1cc(C(=O)O)c(=O)c2ccccc(=O)c21 | > 250 |
| COc1ccc2c(c1)CN(C(=O)CCCCCN1CCN(c3cccc(C(F)(F)F)c3)CC1)C2 | 92 |
| COc1ccc(-c2c(C#N)c(CNS(=O)(=O)c3c(F)cccc3F)nn2-c2ccc(Cl)cc2Cl)cc1 | 170 |
| CS(=O)(=O)Nc1ccc(NC(=O)CN2CCC(Cc3ccc(F)cc3)CC2)cc1 | 169 to 171 |
| O=C1Nc2ccc(F)cc2C1c1ncnc2c1cnn2C1CCCC1 (stereo not given) | 254 to 257 |
| CCCc1c(COc2ccc(C(=O)CCCCCCc3nnn[nH]3)cc2)ccc(C(C)=O)c1O | 134 to 137 |
| C#CCOc1ccc(C(=O)C=Cc2cccs2)c(O)c1 | 83 to 85 |
| COCCN(C1CC(C)(C)Oc2ccc(O)cc21)S(C)(=O)=O (stereo not given) | 115 to 117 |
| COC(=O)C1C=CCN2C(=O)C(CCI)(Cc3ccccc3)C(=O)N12 (stereo not given) | 90 to 92 |
| COc1cc(C)cc(OC)c1CCCCCNC(=O)[C@@H](CCCCN)NC(=O)c1cc2ccccc2n1CC(=O)O | 173 |
| CC(=O)c1ccc(-n2c(-c3cc(-c4ccccc4)c(N4CCOCC4)s3)nc3ccccc3c2=O)cc1 | > 275 |
| O=C(CCCCCCCCCCCCCCCO)OCOC(=O)CCCCCCCCCCCCCCCO | 96.2 |
| CC(=O)NCc1cccc(CCCOCCCCCCNCC(O)c2cc(Cl)c(N)c(Cl)c2)c1 (stereo not given) | 91 to 94 |
| N#Cc1cnc2cc(-c3csc(C=O)c3)ccc2c1Nc1ccc(Cl)cc1Cl | 286 to 288 |
| C=C1CCC2C3CCC4CC(O)CCC4(C)C3C(N)CC12C (stereo not given) | 144 to 149 |
| Cc1ccc2nc(N3CC[C@@H](O)C3)ccc2c1NC(=O)CC1CCCCC1 | 248 to 249 |
| CNc1cc(Br)nc(S(=O)(=O)c2ccc([N+](=O)[O-])cc2)c1 | 191 to 192 |
| CC(=O)NC(=N[N+](=O)[O-])NCc1ccc(Cl)nc1 | 125 to 126 |

| SMILES | melting point [°C] |
| --- | --- |
| Cc1ncc([N+](=O)[O-])n1CCN(CCCCCCCCN(CCn1c([N+](=O)[O-])cnc1C)CCn1c([N+](=O)[O-])cnc1C)CCn1c([N+](=O)[O-])cnc1C | 157 to 158 |
| CCn1nc2ccc(Cl)nn2c1=O | 150 to 152 |
| CC(F)(F)c1ccc(Oc2ccc(C3CCCN4CCS(=O)(=O)N=C34)cc2)cc1 (stereo not given) | 171 to 172 |
| CC(Oc1ccc2c(c1)C(O)C(Oc1cccnc1)CO2)c1ccc2ccccc2n1 (stereo not given) | 75 to 83 |
| CCCCCCCCCCCCCCOC(=O)NO | 64 to 66 |
| O=C1N[C@H](Cc2ccc(CC(F)(F)C(F)(F)F)cc2)[C@H](c2cccc(Cl)c2)O1 (racemic) | 137 to 138 |
| CCN(c1ccccc1)c1nc(=O)c2cccnc2s1 | 174 to 175 |
| COCn1c(-c2nc3c(OC)ccc(N4CCOCC4)c3s2)nc2ccc(C3CCNC3)nc21 (stereo not given) | 120 to 130 |
| CC(=O)Oc1coc(-c2cccc(N)c2)cc1=O | 127 to 129 |
| O=c1[nH]nc2n1-c1ccc(Cl)cc1C(c1ccccc1F)=CC2 | 223 to 225 |
| CC(=O)c1cccc(NC(=O)NCC(=O)N(CC(=O)N(C)c2ccccc2)c2ccccc2)c1 | 170 |
| C[C@@H]1NC(=O)C[C@]1(C)O | 169 to 173 |
| Cc1cccc2c1C(=O)C([N+](=O)[O-])C2=O (stereo not given) | 108 to 109 |
| COc1cccc(OC)c1-c1nc2cnncc2[nH]1 | 207 |
| O=C(O)CCN(C(=O)Cl)c1cccc(Cl)c1 | 106 |
| CCOC(=O)C(C)N1C(=O)C(C)Oc2c(N3CCOCC3)nc(C)nc21 (stereo not given) | 80 to 82 |
| Cc1nc(CC(O)Cn2cnc3c2c(=O)n(C)c(=O)n3C)no1 (stereo not given) | 148 to 150 |
| COc1cc(COc2nn(C)cc2/C=C\c2cscn2)ccc1OCc1nc(-c2ccco2)oc1C | 97 to 98 |
| Brc1ccc2c(c1-c1c(Br)ccc3c1CCCC3)CCCC2 | 146 to 147 |
| CC(C)c1cc(C(=O)Nc2cc(F)c(C(=O)O)c(F)c2)sc1C(C)C | 218 to 219 |
| CCCn1c(=O)c(C=O)c2n(c1=O)CCCS2 | 153 to 154 |
| CC1(c2ccc(CNC(=O)CCl)cc2)Cc2cc(OCC(=O)O)c(Cl)c(Cl)c2C1=O (stereo not given) | 138 to 141 |
| CCCCCCCCCCCCCCCCOc1cc(NS(=O)(=O)c2cc([N+](=O)[O-])ccc2N2CCOCC2)c(OC(C)=O)cc1C | 95 to 96 |
| Cc1ccc(-c2nccc3c(CO)cccc23)cc1 | 195 |
| OCc1ccnc2cc(Cl)ccc12 | 160 |
